# Assays:
# [1] = test system: spontaneous dilated cardiomyopathy (J2N-k) hamster model; experiment: Spontaneous dilated cardiomyopathy (J2N-k) hamster model, 8-week administration from 20 weeks of age (Tests 1-3): echocardiography, body weight
# Procedure, shortened: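 Male J2N-k δ-glycan-deficient hamsters (delivered at 18 weeks; 2-week acclimation) were dosed by oral gavage twice daily for 8 weeks in 0.5% CMC-Na (G in distilled water; 5 mL/kg) at human-equivalent doses, e.g. cilostazol 1.7 mg/kg. Camostat PLGA preparation was given 10 mg/kg s.c. every 4 weeks. Echocardiographic EF/FS changes from baseline were assessed at 4 and 8 weeks versus vehicle.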
# rats [2] = conditions: cited from earlier work
# [3] = test system: lauric acid-induced rat hind limb circulatory disorder model; conditions: oral, 7 consecutive days; cited from earlier work
# [4] = test system: rat coronary artery complete ischemia model; experiment: Model of ischemia (MI) by rat coronary artery complete ligation (Tests 1 and 2): echocardiography, body weight; conditions: for value of change in E.F. compared with E.F. on Day 1 / value of change in F.S. compared with F.S. on Day 1: B-MS 100, C-MS 50, F-MS 30 mg/kg s.c. single injection
# [5] = test system: mice with ethionine-induced pancreatitis; conditions: oral, twice daily; cited from earlier work
# rats [6] = conditions: rat, in vivo, sc; cited from earlier work
# rats [7] = experiment: Repeated oral administration toxicity study in rats (dose-setting basis); conditions: mg/kg twice per day, oral preparation
# Description: The dose-setting basis for the doses of the test substances used in pharmacological tests is as described below.
# [8] = test system: spontaneous dilated cardiomyopathy (J2N-k) hamster model; experiment: Long-term (36 weeks) administration in J2N-k hamster model: cardiac function, survival rate; format: in vivo; conditions: 3.0 mg/kg
# Description: ONO-1301 and (K) candesartan, which is ARB, were each individually orally administered to a δ-glycan-deficient spontaneous dilated cardiomyopathy (J2N-k) hamster model twice daily repeatedly for 36 weeks, after the onset of pathological condition (20 weeks old); and changes in cardiac function and survival rates in long-term administration were compared for evaluation. Specifically, echocardiographic measurement was performed after the onset of pathological condition (20 weeks old); the animals were grouped evenly based on the ejection fractions (EF values) and the body weights (Table 15), and each test substance was individually administered for 36 weeks.
# The test was performed in the same manner as described in the section “1. Investigation of effects in spontaneous dilated cardiomyopathy (J2N-k) hamster model” above.
# ONO-1301 was administered at 3 mg/kg twice per day. Candesartan was administered at 3 mg/kg once per day, and only vehicle was administered at the second administration. To the control group, vehicle (0.5% CMC-Na) was administered twice daily.
# dogs = conditions: 6-month toxicity study in dogs; cited from earlier work
# [9] = test system: spontaneously hypertensive rats (SHR); conditions: oral 0.1, 1 and 10 mg/kg for 2 weeks; cited from earlier work
# [10] = Test 2, p.o. b.i.d., NOAEL-based dose
# [11] = MI Test 1, NOAEL doses, 7 Day, mean ± S.D.
# [12] = MI Test 1, NOAEL doses, 14 Day, mean ± S.D.
# [13] = MI Test 1, NOAEL doses, 29 Day, mean ± S.D.
# [14] = MI Test 2, 14 Day, B 150, G 5, I 30, C 10 mg/kg p.o. b.i.d., mean ± S.D.
# [15] = MI Test 2, 29 Day, B 150, G 5, I 30, C 10 mg/kg p.o. b.i.d., mean ± S.D.
smiles,measurement,setting,value
"CC#CCC(C)[C@H](O)/C=C/[C@@H]1[C@H]2c3cccc(CCCC(=O)O)c3O[C@H]2C[C@H]1O (mixture of isomers) [Compound F, Beraprost sodium]",Body weight 0 W,"[1]; Test 2, at grouping",119.9 g
same,LVIDd 4 W,"[1]; Test 2, p.o. b.i.d.",7.1 mm
same,LVIDd 8 W,"[1]; Test 2, p.o. b.i.d.",7.5 mm
same,LVIDs 4 W,"[1]; Test 2, p.o. b.i.d.",5.9 mm
same,LVIDs 8 W,"[1]; Test 2, p.o. b.i.d.",6.3 mm
same,% FS 4 W,[1]; [10],significantly higher
same,% FS value of change at 4 W compared with 0 W,[1]; [10],significantly higher
same,Body weight 1 W,[1]; [10],120.8 g
same,Body weight 2 W,[1]; [10],122.7 g
same,Body weight 3 W,[1]; [10],124.9 g
same,Body weight 4 W,[1]; [10],127.1 g
same,Body weight 5 W,[1]; [10],128.2 g
same,Body weight 6 W,[1]; [10],129.6 g
same,Body weight 7 W,[1]; [10],129.9 g
same,Body weight 8 W,[1]; [10],130.0 g
same,EF 4 W,[1]; [10],significantly higher
same,No-observed-effect level,"rats [2]; rats, 12 months",0.01 mg/kg/day
same,Dose at which toxic findings were observed,"rats [2]; repeated administration in rats, duration per compound",≥ 0.1 mg/kg/day
same,Dose significantly ameliorating the disorder of the hind limbs,[3],300 µg/kg/day
same,Action on left ventricular systolic function,"[4]; MI Test 1, 28-day repeated oral administration b.i.d., NOAEL-based doses",suppression action on the deterioration of left ventricular systolic function
same,Body weight,"[4]; MI Test 1, NOAEL doses, 1 Day (grouping), mean ± S.D.",230.4 ± 3.3 g
same,% FS: value of change compared with the value on Day 1,[4]; [11],0%
same,Body weight,[4]; [11],232.3 ± 10.0 g
same,EF: value of change compared with the value on Day 1,[4]; [11],0%
same,% FS: value of change compared with the value on Day 1,[4]; [12],-2%
same,Body weight,[4]; [12],252.6 ± 9.8 g
same,EF: value of change compared with the value on Day 1,[4]; [12],-3%
same,Body weight,"[4]; MI Test 1, NOAEL doses, 21 Day, mean ± S.D.",272.9 ± 7.7 g
same,% FS: value of change compared with the value on Day 1,[4]; [13],-3%
same,Body weight (g),[4]; [13],295.4 ± 8.6 (7) g
same,EF: value of change compared with the value on Day 1,[4]; [13],-6%
same,Body weight change compared with control group,"[4]; MI Test 1, until Day 29",Significant body weight gain suppression
"CN(C)C(=O)COC(=O)Cc1ccc(OC(=O)c2ccc(NC(=N)N)cc2)cc1 [Compound B, Camostat mesilate]",LVIDd 4 W,"[1]; Test 1, p.o. b.i.d.",6.8 mm
same,LVIDd 8 W,"[1]; Test 1, p.o. b.i.d.",7.3 mm
same,LVIDs 4 W,"[1]; Test 1, p.o. b.i.d.",5.6 mm
same,LVIDs 8 W,"[1]; Test 1, p.o. b.i.d.",6.1 mm
same,LVIDs 8 W,"[1]; Test 1, p.o. b.i.d., listed as camostat",significantly lower
same,Body weight 1 W,"[1]; hamster, in vivo, po",114.4 g
same,Body weight 2 W,"[1]; hamster, in vivo, po",117.7 g
same,Body weight 3 W,"[1]; hamster, in vivo, po",119.0 g
same,Body weight 4 W,"[1]; hamster, in vivo, po",121.3 g
same,Body weight 5 W,"[1]; hamster, in vivo, po",121.9 g
same,Body weight 6 W,"[1]; hamster, in vivo, po",122.2 g
same,Minimal effective dose (screening 2),"[1]; mg/kg twice per day, oral preparation",5 mg/kg
same,Dose suppressing increase in protease activity in the pancreas,[5],300 mg/kg
same,LD50,rats [6],1329 mg/kg
same,Maximum no-observed-adverse-effect level (screening 1),rats [7],150 mg/kg
same,EF actual measured value and/or amount of change compared with control,"[4]; MI Test 2, Day 14 and Day 29",significantly higher
same,"Values of cardiac function (EF, FS %) compared with control","[4]; MI Test 2, oral b.i.d. 4 weeks or single subcutaneous administration",significantly higher
same,Body weight,"[4]; MI Test 2, 1 Day, B 150, G 5, I 30, C 10 mg/kg p.o. b.i.d., B MS 100, C MS 50, I MS 30 mg/kg s.c. single injection, mean",243.5 g
same,Body weight,"[4]; MI Test 2, 7 Day, B 150, G 5, I 30, C 10 mg/kg p.o. b.i.d., B MS 100, C MS 50, I MS 30 mg/kg s.c. single injection, mean",249.1 g
same,Body weight,"[4]; MI Test 2, 14 Day, B 150, G 5, I 30, C 10 mg/kg p.o. b.i.d., B MS 100, C MS 50, I MS 30 mg/kg s.c. single injection, mean",262.4 g
same,value of change in E.F. compared with E.F. on Day 1,[4]; [14],<−4.2 ± 2.5> %
same,value of change in F.S. compared with F.S. on Day 1,[4]; [14],<−2.3 ± 5.3> %
same,Body weight,"[4]; MI Test 2, 21 Day, B 150, G 5, I 30, C 10 mg/kg p.o. b.i.d., B MS 100, C MS 50, I MS 30 mg/kg s.c. single injection, mean",273.9 g
same,Body weight,"[4]; MI Test 2, 29 Day, B 150, G 5, I 30, C 10 mg/kg p.o. b.i.d., B MS 100, C MS 50, I MS 30 mg/kg s.c. single injection, mean",293.5 g
same,value of change in E.F. compared with E.F. on Day 1,[4]; [15],<−7.3 ± 4.2> %
same,value of change in F.S. compared with F.S. on Day 1,[4]; [15],<−3.9 ± 2.2> %
"CCOc1nc2cccc(C(=O)OC(C)OC(=O)OC3CCCCC3)c2n1Cc1ccc(-c2ccccc2-c2nn[nH]n2)cc1 (centres unmarked) [candesartan, Candesartan cilexetil]",EF compared with control group,[8],no longer significant in Week 30 and Week 36
same,FS% compared with control group,[8],no longer significant in Week 36
same,Survival rate,[8],rapid decrease in the survival rate was observed from 29 weeks
same,No-observed-adverse-effect level,"rats [2]; rats, 6 months",10 mg/kg
same,No-observed-adverse-effect level,dogs,20 mg/kg
same,Blood pressure,[9],reduced blood pressure
same,Plasma renin concentration,[9],increased the plasma renin concentration in a dose-dependent manner
